Results on one compound are retold here after PMC9394284, “Discovery of Novel Dual Adenosine A2A and A1 Receptor Antagonists with 1H-Pyrazolo[3,4-d]pyrimidin-6-amine Core Scaffold as Anti-Parkinson’s Disease Agents” (Pharmaceuticals, 2022).

Where only a bound is given, the exact number is not on record here.

Data set [1] has as its system beagle dogs. The data set is described as follows: maximum tolerated dose, single oral administration, dog. The settings on record: in vivo, po. The method, then: (§1) Rat and dog MTD studies were performed at Frontage Laboratories Inc following testing facility’s SOPs. All procedures described were reviewed and approved by the Institutional Animal Care and Use Committee (IACUC) at Frontage Laboratories Inc.
(§2) For dog MTD study, male and female beagle dogs (Canis familiaris) of 1.3 to 1.4 years of age were from Frontage Laboratories’ test facility stock colony, originally procured from Marshall BioResources (North Rose, NY, USA). The health status of the animals was reviewed by a staff veterinarian. Data collected on animals prior to release to study were maintained as testing facility records. Same dogs were used for each dose event. Animals received a single dose of 11o in 0.5% methyl cellulose via oral gavage starting from 50 mg/kg dose level in 5 mL/kg dose volume. Subsequent doses occurred 3 or 4 days following the previous dose and were increased based on findings from the previous dosing(s). The procedure continued until four dosing events occurred. Animals were fasted overnight prior to each dose administration with food provided approximately 4 h post-dose. Animals were observed once in the morning and once in the afternoon throughout the study for clinical observations. Body weights were measured on the day prior to dose administration. Data were collected and reported electronically using Provantis^TM (Instem LSS Ltd., Staffordshire, UK).

Assay in data set [2]: as above
The settings on record: both sexes, in vivo, single oral administration, male and female beagle dogs. The method, then:
as §1, §2

In data set [3] the target is T1, A1 adenosine receptor (Homo sapiens, UniProt P30542).
T1 sequence (P30542 1-326): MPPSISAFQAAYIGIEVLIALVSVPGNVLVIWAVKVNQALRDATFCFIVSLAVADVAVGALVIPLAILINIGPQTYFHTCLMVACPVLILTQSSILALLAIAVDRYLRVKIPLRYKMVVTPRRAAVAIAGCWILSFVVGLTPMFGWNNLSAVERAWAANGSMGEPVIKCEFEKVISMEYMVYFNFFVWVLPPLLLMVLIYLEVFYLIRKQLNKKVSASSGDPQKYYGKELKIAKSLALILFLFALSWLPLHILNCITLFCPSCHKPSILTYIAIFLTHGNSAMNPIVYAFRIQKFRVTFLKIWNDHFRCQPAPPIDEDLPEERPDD
In words: cyclic AMP HTRF functional assay, CHO-K1 (A1). The class given is cell-based. Conditions: CHO-K1 cells. The method, then: Next, the functional activity of 11o against A1 and A2A adenosine receptors was evaluated using c-AMP assay in CHO-K1 (A1) and HEK-293 (A2A) cells.
For functional studies, A1 and A2A receptor cyclic AMP HTRF (homogeneous time resolved fluorescence) assay was performed at EuroscreenFast (Charleroi, Belgium) using CHO-K1 (A1) and HEK293 (A2A) stable cell line with CPA (A1) and NECA (A2A) as reference agonist and DPCPX (A1) and ZM241385 (A2A) as reference antagonist compound.
(TR-FRET usually uses a lanthanide donor and a delayed reading to cut background.)

Data set [4] is described as follows: metabolic stability in cryopreserved mouse hepatocytes. The method, then: Metabolic stability of 11o was determined in cryopreserved hepatocytes from mice, rats, dogs, monkeys and human according to the SOPs of Frontage Laboratories Inc. Briefly, cryopreserved hepatocytes for pre-clinical animals and for human (BioIVT, Westbury, NY, USA) were thawed in a 37 °C water bath with gentle shaking until ice had almost melted. The suspensions were immediately transferred to a centrifuge tube (50 mL) containing pre-warmed thawing media at 37 °C with gentle handshaking to prevent the cells from settling. Cell suspensions were centrifuged at 50× g and 4 °C for 5 min. The supernatant was discarded and the pellets were resuspended in prewarmed incubation media (5 mL) at 37 °C. The percentage of viable cells in the suspension was determined by Trypan blue staining method to ensure viability of ≥70 %. […] The samples were centrifuged and aliquots of the supernatant were analyzed for parent compounds by LC/MS/MS using suitable multiple reaction monitoring (MRM) transitions. […] The disappearance of 11o and midazolam was monitored by LC/MS/MS (MRM) analysis of the hepatocyte extracts at each time point. The peak area ratio of the analyte to internal standard was obtained for each sample and the rate of disappearance of 11o was assessed by comparing the peak area ratios at various time points to the peak area ratio obtained at t = 0. The t1/2 is obtained (using the linear portion of semi-log plot of the area ratio vs. time) and the CLint values determined using well-stirred model.

The mark [5] stands for this setting: CD-1, mouse, cryopreserved hepatocytes in suspension.

For orientation: MTD means the largest dose that counted as tolerated. Broadly, the IC50 is the concentration at which inhibition is half-maximal. As usually defined, the CLint scaled is the capacity of the preparation to metabolise the compound, expressed as a volume cleared per time. The low end stands for greater metabolic stability, the high end for faster metabolism. In general, half-life refers to the time in which the quantity being followed falls by half. The hepatocyte CLint is the rate of metabolic loss divided by the concentration. The low end stands for slow turnover, the high end for rapid turnover. Take `Cc1cc(Cn2ncc3c(-c4cccc(C#N)c4F)nc(N)nc32)ccc1N` [11o, 3-(6-Amino-1-(4-amino-3-methylbenzyl)-1H-pyrazolo[3,4-d]pyrimidin-4-yl)-2-fluorobenzonitrile]: in data set [1], the “body weight change, female dogs” value is −6.5% and the “body weight change, male dogs” value was −5.7%. Besides, the MTD in data set [2] was over 400 mg/kg. For the same compound, the “functional activity at A1 receptor” value in data set [3] is “full antagonism”. Further, the IC50 in data set [3] (read-out: IC50, A1 functional antagonism (c-AMP)) came to 0.0988 µM. Besides, in data set [4] (setting [5]), the CLint scaled at 1 μM came to 6.9 L/h/kg, the half-life at 1 μM turned out to be 1.18 h and the hepatocyte CLint at 1 μM turned out to be 9.8 µL/min/1e6 cells. For the same compound, the “Intrinsic Clearance” value in data set [4] (mouse hepatocytes, 1 μM 11o) came to 0.00977 mL/min/10^6 Cells.
